According to PubChem BioAssay (NCI):
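Test compounds were applied to cells in 96-well plates for 48 hours at 5 doses. The concentration for 50% growth inhibition is given as GI50. TGI is the concentration that stops growth completely.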

Assays:
Experiment in all cases: NCI tumour cell line growth inhibition, 48 h
[1] = system: 786-0 renal
[2] = system: A498 renal
[3] = system: A549 NSCLC
[4] = system: ACHN renal
[5] = system: BT-549 breast
[6] = system: CAKI-1 renal
[7] = system: CCRF-CEM leukemia
[8] = system: COLO 205 colon
[9] = system: DU-145 prostate
[10] = system: EKVX NSCLC
[11] = system: HCC-2998 colon
[12] = system: HCT-116 colon
[13] = system: HCT-15 colon
[14] = system: HL-60(TB) leukemia
[15] = system: HOP-62 NSCLC
[16] = system: HOP-92 NSCLC
[17] = system: HS 578T breast
[18] = system: HT29 colon
[19] = system: IGROV1 ovarian
[20] = system: K-562 leukemia
[21] = system: KM12 colon
[22] = system: LOX IMVI melanoma
[23] = system: M14 melanoma
[24] = system: MALME-3M melanoma
[25] = system: MCF7 breast
[26] = system: MDA-MB-231 breast
[27] = system: MDA-MB-435
[28] = system: MOLT-4 leukemia
[29] = system: NCI-H226 lung
[30] = system: NCI-H23 lung
[31] = system: NCI-H460 lung
[32] = system: NCI-H522 lung
[33] = system: NCI/ADR-RES ovarian
[34] = system: OVCAR-3 ovarian
[35] = system: OVCAR-4 ovarian
[36] = system: OVCAR-5 ovarian
[37] = system: OVCAR-8 ovarian
[38] = system: PC-3 prostate
[39] = system: RPMI-8226 leukemia
[40] = system: RXF 393 renal
[41] = system: SF-268 CNS
[42] = system: SF-295 CNS
[43] = system: SF-539 CNS
[44] = system: SK-MEL-2 melanoma
[45] = system: SK-MEL-28 melanoma
[46] = system: SK-MEL-5 melanoma
[47] = system: SK-OV-3 ovarian
[48] = system: SN12C renal
[49] = system: SNB-19 CNS
[50] = system: SNB-75 CNS
[51] = system: SW-620 colon
[52] = system: T-47D breast
[53] = system: TK-10 renal
[54] = system: U251 CNS
[55] = system: UACC-257 melanoma
[56] = system: UACC-62 melanoma
[57] = system: UO-31 renal
[58] = system: SR leukemia

O=C(Nc1ccncc1)C(=O)c1cn(S(=O)(=O)c2ccc(Cl)cc2)c2ccccc12
GI50 [1]: 3.5 µM | TGI [1]: 45.2 µM | GI50 [2]: 8.83 µM | TGI [2]: > 74.9 µM | GI50 [3]: 17.5 µM | TGI [3]: > 100 µM | GI50 [4]: 3.49 µM | TGI [4]: > 59.6 µM | GI50 [5]: 3.75 µM | TGI [5]: > 80.5 µM | GI50 [6]: 1.86 µM | TGI [6]: > 100 µM | GI50 [7]: 3.18 µM | TGI [7]: > 100 µM | GI50 [8]: > 61.5 µM | TGI [8]: > 100 µM | GI50 [9]: 3.43 µM | TGI [9]: > 49.7 µM | GI50 [10]: 2.62 µM | TGI [10]: > 100 µM | GI50 [11]: 10.3 µM | TGI [11]: > 100 µM | GI50 [12]: 0.415 µM | TGI [12]: > 48.9 µM | GI50 [13]: 0.45 µM | TGI [13]: > 100 µM | GI50 [14]: 0.401 µM | GI50 [15]: 1.73 µM | TGI [15]: 22 µM | GI50 [16]: 1.12 µM | TGI [16]: 19.9 µM | GI50 [17]: 11.2 µM | TGI [17]: > 100 µM | GI50 [18]: 0.397 µM | TGI [18]: > 32.4 µM | GI50 [19]: 3.29 µM | TGI [19]: > 100 µM | GI50 [20]: 1.08 µM | TGI [20]: > 100 µM | GI50 [21]: 0.567 µM | TGI [21]: > 100 µM | GI50 [22]: 0.765 µM | TGI [22]: > 100 µM | GI50 [23]: 0.634 µM | TGI [23]: > 52.1 µM | GI50 [24]: 0.894 µM | TGI [24]: > 100 µM | GI50 [25]: 0.354 µM | TGI [25]: 38.7 µM | GI50 [26]: 3.69 µM | TGI [26]: 32.3 µM | GI50 [27]: 0.106 µM | TGI [27]: 0.521 µM | GI50 [28]: 3.63 µM | TGI [28]: > 100 µM | GI50 [29]: 9.4 µM | TGI [29]: > 100 µM | GI50 [30]: 0.425 µM | TGI [30]: 33.1 µM | GI50 [31]: 11.5 µM | TGI [31]: > 100 µM | GI50 [32]: 0.279 µM | TGI [32]: 1.08 µM | GI50 [33]: 0.369 µM | TGI [33]: > 100 µM | GI50 [34]: 0.538 µM | TGI [34]: 9.44 µM | GI50 [35]: 3.89 µM | TGI [35]: > 70.3 µM | GI50 [36]: > 30.1 µM | TGI [36]: > 95.8 µM | GI50 [37]: 1.63 µM | TGI [37]: 97.1 µM | GI50 [38]: 1.4 µM | TGI [38]: > 55.5 µM | GI50 [39]: 1.44 µM | TGI [39]: > 100 µM | GI50 [40]: 3.71 µM | TGI [40]: 35.7 µM | GI50 [41]: 1.39 µM | TGI [41]: > 100 µM | GI50 [42]: 1.68 µM | TGI [42]: 14.9 µM | GI50 [43]: 0.696 µM | TGI [43]: 12.5 µM | GI50 [44]: 3.24 µM | TGI [44]: 27.3 µM | GI50 [45]: 1.06 µM | TGI [45]: > 50.4 µM | GI50 [46]: 0.443 µM | TGI [46]: 11.9 µM | GI50 [47]: 19.6 µM | TGI [47]: 73.8 µM | GI50 [48]: 2.02 µM | TGI [48]: > 100 µM | GI50 [49]: 5.94 µM | TGI [49]: 51.5 µM | GI50 [50]: 1.23 µM | TGI [50]: 10.9 µM | GI50 [51]: 1.35 µM | TGI [51]: > 100 µM | GI50 [52]: 0.905 µM | TGI [52]: > 100 µM | GI50 [53]: 11.5 µM | TGI [53]: 38.4 µM | GI50 [54]: 1.06 µM | TGI [54]: 17.8 µM | GI50 [55]: 1.1 µM | TGI [55]: > 100 µM | GI50 [56]: 0.503 µM | TGI [56]: 14.2 µM | GI50 [57]: 9.18 µM | TGI [57]: > 100 µM

C#Cc1c(/C=C/C(=O)OCC)ccc2ccccc12
GI50 [1]: 27.5 µM | TGI [1]: 74 µM | GI50 [2]: 15.2 µM | TGI [2]: 37.8 µM | GI50 [3]: 30.4 µM | TGI [3]: > 100 µM | GI50 [4]: 14.6 µM | TGI [4]: 31.7 µM | GI50 [5]: 18.7 µM | TGI [5]: 44.7 µM | GI50 [6]: 21.4 µM | TGI [6]: 56.7 µM | GI50 [7]: 14.6 µM | TGI [7]: 30.9 µM | GI50 [8]: 13.8 µM | TGI [8]: 33.5 µM | GI50 [9]: 28.9 µM | TGI [9]: 75.6 µM | GI50 [10]: 28 µM | TGI [10]: 84.3 µM | GI50 [11]: 27.4 µM | TGI [11]: > 100 µM | GI50 [12]: 26.2 µM | TGI [12]: 91.6 µM | GI50 [13]: 9.99 µM | TGI [13]: 97.3 µM | GI50 [14]: 10.6 µM | TGI [14]: 26.1 µM | GI50 [15]: 28.5 µM | TGI [15]: 95.5 µM | GI50 [17]: 27.2 µM | TGI [17]: 83.2 µM | GI50 [18]: 6.61 µM | TGI [18]: 26 µM | GI50 [19]: 5.77 µM | TGI [19]: 26.2 µM | GI50 [20]: 6.98 µM | TGI [20]: 41.7 µM | GI50 [21]: 5.84 µM | TGI [21]: 23.9 µM | GI50 [22]: 13.1 µM | TGI [22]: 27.4 µM | GI50 [23]: 18.9 µM | TGI [23]: 46 µM | GI50 [24]: 13.1 µM | TGI [24]: 41.2 µM | GI50 [25]: 24 µM | TGI [25]: > 100 µM | GI50 [26]: 13.4 µM | TGI [26]: 35 µM | GI50 [27]: 2.11 µM | TGI [27]: 5.78 µM | GI50 [28]: 10.7 µM | TGI [28]: 26.1 µM | GI50 [29]: 19.9 µM | TGI [29]: 82.9 µM | GI50 [30]: 20.1 µM | TGI [30]: 47.9 µM | GI50 [31]: 78.2 µM | TGI [31]: > 100 µM | GI50 [32]: 13.4 µM | TGI [32]: 31.1 µM | GI50 [33]: 21.3 µM | TGI [33]: 59.2 µM | GI50 [34]: 16 µM | TGI [34]: 40.6 µM | GI50 [35]: 20.7 µM | TGI [35]: 69.1 µM | GI50 [36]: 28.9 µM | TGI [36]: > 100 µM | GI50 [37]: 35.1 µM | TGI [37]: > 100 µM | GI50 [38]: 18.3 µM | TGI [38]: 63.6 µM | GI50 [39]: 10.7 µM | TGI [39]: 29.3 µM | GI50 [40]: 22.6 µM | TGI [40]: 69.7 µM | GI50 [41]: 18.2 µM | TGI [41]: 58.5 µM | GI50 [42]: 13.3 µM | TGI [42]: 45 µM | GI50 [43]: 22.3 µM | TGI [43]: 48.9 µM | GI50 [45]: 13.7 µM | TGI [45]: 39.7 µM | GI50 [46]: 15.2 µM | TGI [46]: 31.9 µM | GI50 [47]: 58.8 µM | TGI [47]: > 100 µM | GI50 [48]: 13.3 µM | TGI [48]: 39.4 µM | GI50 [49]: 36.8 µM | TGI [49]: > 100 µM | GI50 [50]: 10.1 µM | TGI [50]: 40.4 µM | GI50 [58]: 3.94 µM | TGI [58]: 17 µM | GI50 [51]: 32.2 µM | TGI [51]: > 100 µM | GI50 [52]: 42.8 µM | TGI [52]: > 100 µM | GI50 [53]: 30.4 µM | TGI [53]: 79.1 µM | GI50 [54]: 11.2 µM | TGI [54]: 31.7 µM | GI50 [55]: 27.4 µM | TGI [55]: > 100 µM | GI50 [56]: 11.6 µM | TGI [56]: 27.5 µM | GI50 [57]: 12.7 µM | TGI [57]: 26.6 µM
